Results reported in patent US12077503B2, “Substituted cyclic amides and their use as herbicides” (FMC CORPORATION, priority 2015, dated 2024).

What was measured:
Type in all cases: in vivo
Kochia (Kochia scoparia) [1] = assay: Test A preemergence; conditions: Bassia scoparia, pre-emergence, 240 h, 0 to 100 scale where 0 is no effect and 100 is complete control, read-out: Kochia plant response rating; for pest or weed control at 31 g/ha: 31 g ai/ha, Preemergence; for pest or weed control at 125 g/ha: 125 g ai/ha, preemergence, visual injury rating, approximately 10 d
In short: (§1)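 Ratings of 0 (no effect) to 100 (complete control) come from visual comparison with untreated controls roughly 10 d after treatment. Test chemicals, formulated in a non-phytotoxic solvent mixture with surfactant, were applied either as a preemergence directed soil spray on seeded soil or postemergence to one- to two-leaf plants 2 to 10 cm tall.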

[2] = test system: barnyardgrass (Echinochloa crus-galli); assay: Test A preemergence; conditions: Echinochloa crus-galli, pre-emergence, 240 h, 0 to 100 scale where 0 is no effect and 100 is complete control, read-out: Barnyardgrass plant response rating; for pest or weed control at 31 g/ha: 31 g ai/ha, Preemergence; for pest or weed control at 125 g/ha: 125 g ai/ha, preemergence, visual injury rating, approximately 10 d
In short: as §1

[3] = test system: giant foxtail (Setaria faberii); assay: Test A preemergence; conditions: Setaria faberi, pre-emergence, 240 h, 0 to 100 scale where 0 is no effect and 100 is complete control, read-out: Foxtail, Giant plant response rating; for pest or weed control at 31 g/ha: 31 g ai/ha, Preemergence; for pest or weed control at 125 g/ha: 125 g ai/ha, preemergence, visual injury rating, approximately 10 d
In short: as §1

[4] = test system: pigweed (Amaranthus retroflexus); assay: Test A preemergence; conditions: Amaranthus retroflexus, pre-emergence, 240 h, 0 to 100 scale where 0 is no effect and 100 is complete control, read-out: Pigweed plant response rating; for pest or weed control at 31 g/ha: 31 g ai/ha, Preemergence; for pest or weed control at 125 g/ha: 125 g ai/ha, preemergence, visual injury rating, approximately 10 d
[5] = test system: ragweed (common ragweed, Ambrosia elatior); assay: Test A preemergence; conditions: Ambrosia artemisiifolia, pre-emergence, 240 h, 0 to 100 scale where 0 is no effect and 100 is complete control, read-out: Ragweed plant response rating; for pest or weed control at 31 g/ha: 31 g ai/ha, Preemergence; for pest or weed control at 125 g/ha: 125 g ai/ha, preemergence, visual injury rating, approximately 10 d
In short: as §1

[6] = test system: ryegrass, Italian (Italian ryegrass, Lolium multiflorum); assay: Test A preemergence; conditions: Lolium multiflorum, pre-emergence, 240 h, 0 to 100 scale where 0 is no effect and 100 is complete control, read-out: Ryegrass, Italian plant response rating; for pest or weed control at 31 g/ha: 31 g ai/ha, Preemergence; for pest or weed control at 125 g/ha: 125 g ai/ha, preemergence, visual injury rating, approximately 10 d
In short: as §1

[7] = test system: Galium (catchweed bedstraw, Galium aparine); assay: Test A postemergence; conditions: Galium, post-emergence, 240 h, Postemergence, read-out: Galium plant response rating (0 to 100 scale); for pest or weed control at 125 g/ha: 125 g ai/ha, visual rating about 10 d after treatment; for pest or weed control at 31 g/ha: 31 g ai/ha, 0 is no effect, 100 is complete control
In short: as §1

Kochia (Kochia scoparia) [8] = assay: Test A postemergence; conditions: Bassia scoparia, post-emergence, 240 h, Postemergence, read-out: Kochia plant response rating (0 to 100 scale); for pest or weed control at 125 g/ha: 125 g ai/ha, visual rating about 10 d after treatment; for pest or weed control at 31 g/ha: 31 g ai/ha, 0 is no effect, 100 is complete control
In short: as §1

[9] = test system: barnyardgrass (Echinochloa crus-galli); assay: Test A postemergence; conditions: Echinochloa crus-galli, post-emergence, 240 h, Postemergence; for pest or weed control at 125 g/ha: 125 g ai/ha, visual rating about 10 d after treatment, read-out: Barnyardgrass plant response rating (0 to 100 scale, 0 no effect, 100 complete control); for pest or weed control at 31 g/ha: 31 g ai/ha, 0 is no effect, 100 is complete control, read-out: Barnyardgrass plant response rating (0 to 100 scale)
In short: as §1

[10] = test system: blackgrass (Alopecurus myosuroides); assay: Test A postemergence; conditions: Alopecurus myosuroides, post-emergence, 240 h, Postemergence, read-out: Blackgrass plant response rating (0 to 100 scale); for pest or weed control at 125 g/ha: 125 g ai/ha, visual rating about 10 d after treatment; for pest or weed control at 31 g/ha: 31 g ai/ha, 0 is no effect, 100 is complete control
In short: as §1

corn (Zea mays) = assay: Test A postemergence; conditions: Zea mays, post-emergence, 240 h, Postemergence, read-out: Corn plant response rating (0 to 100 scale); for plant injury at 125 g/ha: 125 g ai/ha, visual rating about 10 d after treatment; for plant injury at 31 g/ha: 31 g ai/ha, 0 is no effect, 100 is complete control
In short: as §1

[11] = test system: giant foxtail (Setaria faberii); assay: Test A postemergence; conditions: Setaria faberi, post-emergence, 240 h, Postemergence, read-out: Foxtail, Giant plant response rating (0 to 100 scale); for pest or weed control at 125 g/ha: 125 g ai/ha, visual rating about 10 d after treatment; for pest or weed control at 31 g/ha: 31 g ai/ha, 0 is no effect, 100 is complete control
In short: as §1

[12] = test system: pigweed (Amaranthus retroflexus); assay: Test A postemergence; conditions: Amaranthus retroflexus, post-emergence, 240 h, Postemergence, read-out: Pigweed plant response rating (0 to 100 scale); for pest or weed control at 125 g/ha: 125 g ai/ha, visual rating about 10 d after treatment; for pest or weed control at 31 g/ha: 31 g ai/ha, 0 is no effect, 100 is complete control
In short: as §1

[13] = test system: ragweed (common ragweed, Ambrosia elatior); assay: Test A postemergence; conditions: Ambrosia artemisiifolia, post-emergence, 240 h, Postemergence, read-out: Ragweed plant response rating (0 to 100 scale); for pest or weed control at 125 g/ha: 125 g ai/ha, visual rating about 10 d after treatment; for pest or weed control at 31 g/ha: 31 g ai/ha, 0 is no effect, 100 is complete control
In short: as §1

[14] = test system: ryegrass, Italian (Italian ryegrass, Lolium multiflorum); assay: Test A postemergence; conditions: Lolium multiflorum, post-emergence, 240 h, Postemergence, read-out: Ryegrass, Italian plant response rating (0 to 100 scale); for pest or weed control at 125 g/ha: 125 g ai/ha, visual rating about 10 d after treatment; for pest or weed control at 31 g/ha: 31 g ai/ha, 0 is no effect, 100 is complete control
In short: as §1

[15] = test system: wheat (Triticum aestivum); assay: Test A postemergence; conditions: Triticum aestivum, post-emergence, 240 h, Postemergence, read-out: Wheat plant response rating (0 to 100 scale); for plant injury at 125 g/ha: 125 g ai/ha, visual rating about 10 d after treatment; for plant injury at 31 g/ha: 31 g ai/ha, 0 is no effect, 100 is complete control
In short: as §1

[16] = test system: barnyardgrass (Echinochloa crus-galli); assay: Test B flooded paddy test; conditions: Echinochloa crus-galli, 250 g ai/ha, Flood; 0 to 100 scale where 0 is no effect and 100 is complete control; read-out: Barnyardgrass plant response rating
In short: (§2)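 Visual ratings (0 none to 100 complete control) are relative to untreated plants, taken 13–15 d after treatment in a greenhouse. Test material went straight into floodwater standing 3 cm above the soil, kept constant, on plants at the 2-leaf stage.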

[17] = test system: ducksalad (Heteranthera limosa); assay: Test B flooded paddy test; conditions: Heteranthera limosa, 250 g ai/ha, Flood; 0 to 100 scale where 0 is no effect and 100 is complete control; read-out: Ducksalad plant response rating
In short: as §2

rice (Oryra sativa) = assay: Test B flooded paddy test; conditions: Oryza sativa, 250 g ai/ha, Flood; 0 to 100 scale where 0 is no effect and 100 is complete control; read-out: Rice plant response rating
In short: as §2

[18] = test system: sedge, umbrella (small-flower umbrella sedge, Cyperus difformis); assay: Test B flooded paddy test; conditions: Cyperus difformis, 250 g ai/ha, Flood; 0 to 100 scale where 0 is no effect and 100 is complete control; read-out: Sedge, Umbrella plant response rating
In short: as §2

SMILES	pest or weed control at 31 g/ha (Kochia (Kochia scoparia) [1]) [%]	pest or weed control at 125 g/ha (Kochia (Kochia scoparia) [1]) [%]	pest or weed control at 31 g/ha [2] [%]	pest or weed control at 125 g/ha [2] [%]	pest or weed control at 31 g/ha [3] [%]	pest or weed control at 125 g/ha [3] [%]	pest or weed control at 31 g/ha [4] [%]	pest or weed control at 125 g/ha [4] [%]	pest or weed control at 31 g/ha [5] [%]	pest or weed control at 125 g/ha [5] [%]	pest or weed control at 31 g/ha [6] [%]	pest or weed control at 125 g/ha [6] [%]	pest or weed control at 125 g/ha [7] [%]	pest or weed control at 31 g/ha [7] [%]	pest or weed control at 125 g/ha (Kochia (Kochia scoparia) [8]) [%]	pest or weed control at 31 g/ha (Kochia (Kochia scoparia) [8]) [%]	pest or weed control at 125 g/ha [9] [%]	pest or weed control at 31 g/ha [9] [%]	pest or weed control at 125 g/ha [10] [%]	pest or weed control at 31 g/ha [10] [%]	other results
CN1C[C@H](c2csc3c2CCCC3)[C@@H](C(=O)Nc2cccc(F)c2F)C1=O [Compound 1276]	30	60	90	100	90	100	0	30	20	80	0	30	0	0	0	0	100	70	0	0	plant injury at 125 g/ha (corn (Zea mays)): 0%; plant injury at 31 g/ha (corn (Zea mays)): 0%; pest or weed control at 125 g/ha [11]: 60%; pest or weed control at 31 g/ha [11]: 30%; pest or weed control at 125 g/ha [12]: 0%; pest or weed control at 31 g/ha [12]: 0%; pest or weed control at 125 g/ha [13]: 0%; pest or weed control at 31 g/ha [13]: 0%; pest or weed control at 125 g/ha [14]: 0%; pest or weed control at 31 g/ha [14]: 0%; plant injury at 125 g/ha [15]: 0%; plant injury at 31 g/ha [15]: 0%; pest or weed control at 250 g/ha [16]: 65%; pest or weed control at 250 g/ha [17]: 90%; pest or weed control at 250 g/ha (rice (Oryra sativa)): 25%; pest or weed control at 250 g/ha [18]: 0%
O=C1NC[C@H](c2csc3c2CCOC3)[C@H]1C(=O)Nc1cccc(F)c1F [Compound 1279]	0	0	0	70	0	20	0	0	0	0	0	0	30	0	0	0	50	0	20	0	plant injury at 125 g/ha (corn (Zea mays)): 0%; plant injury at 31 g/ha (corn (Zea mays)): 0%; pest or weed control at 125 g/ha [11]: 20%; pest or weed control at 31 g/ha [11]: 0%; pest or weed control at 125 g/ha [12]: 0%; pest or weed control at 31 g/ha [12]: 0%; pest or weed control at 125 g/ha [13]: 0%; pest or weed control at 31 g/ha [13]: 0%; pest or weed control at 125 g/ha [14]: 0%; pest or weed control at 31 g/ha [14]: 0%; plant injury at 125 g/ha [15]: 0%; plant injury at 31 g/ha [15]: 0%; pest or weed control at 250 g/ha [16]: 40%; pest or weed control at 250 g/ha [17]: 100%; pest or weed control at 250 g/ha (rice (Oryra sativa)): 30%; pest or weed control at 250 g/ha [18]: 0%
